Reference: paper PMC6136660 (Steroids, 2018)
Read-outs that look alike come from different tables or passages of the source.

Tests used:
[1] = system: blood glucose (insulin resistance biomarker); test: Blood glucose, SAD; type: in vivo, human; conditions: mean±SEM
Procedure: (§1) All biomarkers were analyzed using standard immunoassays by PRA.
(§2) Glucocorticoids were originally named as such due to their potent and acute effects on glucose metabolism, where liver and muscle pathways for insulin signaling are rapidly and profoundly affected, creating a state of insulin resistance. […] Fasting insulin and glucose levels were assessed in all dose groups in the vamorolone Phase 1 SAD and MAD.

osteocalcin = test: Serum osteocalcin (bone formation biomarker), MAD; type: in vivo, human; conditions: for Osteocalcin: mean±SEM
Procedure: as §1
Pharmacological glucocorticoids cause bone side effects including osteopenia and bone fragility. Bone turnover markers bridged to later bone morbidities include osteocalcin for bone formation, and CTX1 (C-terminal telopeptide of collagen 1) for bone absorption. These biomarkers predict phenotypes of osteopenia and used in clinical trials to monitor bone side effects of treatments. […] (Supplemental Fig. 2). In the vamorolone Phase 1 trial, serum osteocalcin levels were assayed prior to dosing (Day 1 predose), 8 h after initial dose (Day 1), pre-dose on day 14 of daily dosing, 8 h after the day 14 (last) dose, and during recovery days 15 and 17.

[2] = system: blood glucose (insulin resistance biomarker); test: Blood glucose / fasting insulin, MAD; type: in vivo, human; conditions: for Blood glucose: mean±SEM
Procedure: as §1, §2

[3] = Phase 1 multiple ascending dose (MAD) pharmacokinetics, 14 days once daily; type: in vivo, human; conditions: for CL/F: human, plasma, oral, read-out: CL/F, range of geometric mean values
Procedure: The MAD part of the study was initiated after a review of safety and PK data from SAD cohorts 1 to 6. In the MAD part, 4 cohorts containing 8 subjects each were randomized to receive vamorolone or placebo, in a 3:1 ratio, once daily (QD) for 14 days. The duration of dosing in the MAD part was determined based on the PK data from the SAD part. In each cohort, 3 sentinel subjects were administered vamorolone or placebo, in a 2:1 ratio.
The planned dose levels for the MAD part were 1.0 mg/kg (Cohort 1), 3.0 mg/kg (Cohort 2), 9.0 mg/kg (Cohort 3), and 20.0 mg/kg (Cohort 4) or until the maximum tolerated dose (MTD) was identified.
Daily doses of vamorolone (1.0, 3.0, 9.0 and 20.0 mg/kg/day) were given in the morning in a fasted state, daily for 14 days, and PK determined on day 1 (after single dose) and day 14 (after the 14th dose). Consistent with the SAD, mean plasma vamorolone concentrations and dose-related PK parameters increased in a dose related manner (Fig. 3). Log-log plots of the individual subject Cmax and AUC (inf) were linear. Although the slopes ranged from 0.827 to 0.898, the deviation from 1.0 may be a consequence of between-subject variability and not indicative of a less than dose-proportional increase in exposure.

[4] = Aqueous solubility (statement); type: physicochemical; conditions: aqueous solutions
adrenal suppression = system: adrenal suppression; design: method as in PMID 23498916, PMID 24014378, PMID 27133900; conditions: in vitro assays in multiple cell types; cited from earlier work
[5] = MAD 1.0 mg/kg, Day 1 (predose), baseline
[6] = MAD 1.0 mg/kg, Day 14 (predose)
[7] = MAD 3.0 mg/kg, Day 1 (predose), baseline
[8] = MAD 3.0 mg/kg, Day 14 (predose)
[9] = MAD 9.0 mg/kg, Day 1 (predose), baseline
[10] = MAD 9.0 mg/kg, Day 14 (predose)
[11] = MAD 20.0 mg/kg, Day 1 (predose), baseline
[12] = MAD 20.0 mg/kg, Day 14 (predose)

## C[C@@H]1C[C@H]2[C@@H]3CCC4=CC(=O)C=C[C@]4(C)C3=CC[C@]2(C)[C@@]1(O)C(=O)CO [vamorolone]
[1]; SAD 0.1 mg/kg, 24 Hours Post Dose
  Blood glucose: 95 ± 4 mg/dL
[1]; SAD 0.1 mg/kg, 48 Hours Post Dose
  Blood glucose: 95 ± 3 mg/dL
[1]; SAD 0.1 mg/kg, 72 Hours Post Dose
  Blood glucose: 94 ± 4 mg/dL
[1]; SAD 0.1 mg/kg, <2 hours predose, baseline
  Blood glucose: 95 ± 3 mg/dL
[1]; SAD 0.1 mg/kg, Day -1, baseline
  Blood glucose: 99 ± 3 mg/dL
[1]; SAD 0.1 mg/kg, Follow-up Visit
  Blood glucose: 98 ± 4 mg/dL
[1]; SAD 0.1 mg/kg, Screening, baseline
  Blood glucose: 94 ± 4 mg/dL
[1]; SAD 0.3 mg/kg, 24 Hours Post Dose
  Blood glucose: 91 ± 2 mg/dL
[1]; SAD 0.3 mg/kg, 48 Hours Post Dose
  Blood glucose: 90 ± 2 mg/dL
[1]; SAD 0.3 mg/kg, 72 Hours Post Dose
  Blood glucose: 91 ± 1 mg/dL
[1]; SAD 0.3 mg/kg, <2 hours predose, baseline
  Blood glucose: 93 ± 2 mg/dL
[1]; SAD 0.3 mg/kg, Day -1, baseline
  Blood glucose: 91 ± 2 mg/dL
[1]; SAD 0.3 mg/kg, Follow-up Visit
  Blood glucose: 88 ± 4 mg/dL
[1]; SAD 0.3 mg/kg, Screening, baseline
  Blood glucose: 93 ± 2 mg/dL
[1]; SAD 1.0 mg/kg, 24 Hours Post Dose
  Blood glucose: 86 ± 3 mg/dL
[1]; SAD 1.0 mg/kg, 48 Hours Post Dose
  Blood glucose: 88 ± 3 mg/dL
[1]; SAD 1.0 mg/kg, 72 Hours Post Dose
  Blood glucose: 86 ± 3 mg/dL
[1]; SAD 1.0 mg/kg, <2 hours predose, baseline
  Blood glucose: 93 ± 3 mg/dL
[1]; SAD 1.0 mg/kg, Day -1, baseline
  Blood glucose: 92 ± 3 mg/dL
[1]; SAD 1.0 mg/kg, Follow-up Visit
  Blood glucose: 93 ± 2 mg/dL
[1]; SAD 1.0 mg/kg, Screening, baseline
  Blood glucose: 92 ± 3 mg/dL
[1]; SAD 3.0 mg/kg, 24 Hours Post Dose
  Blood glucose: 93 ± 3 mg/dL
[1]; SAD 3.0 mg/kg, 48 Hours Post Dose
  Blood glucose: 89 ± 4 mg/dL
[1]; SAD 3.0 mg/kg, 72 Hours Post Dose
  Blood glucose: 88 ± 3 mg/dL
[1]; SAD 3.0 mg/kg, <2 hours predose, baseline
  Blood glucose: 92 ± 4 mg/dL
[1]; SAD 3.0 mg/kg, Day -1, baseline
  Blood glucose: 89 ± 3 mg/dL
[1]; SAD 3.0 mg/kg, Follow-up Visit
  Blood glucose: 91 ± 5 mg/dL
[1]; SAD 3.0 mg/kg, Screening, baseline
  Blood glucose: 96 ± 5 mg/dL
[1]; SAD 8.0 mg/kg, 24 Hours Post Dose
  Blood glucose: 91 ± 4 mg/dL
[1]; SAD 8.0 mg/kg, 48 Hours Post Dose
  Blood glucose: 87 ± 3 mg/dL
[1]; SAD 8.0 mg/kg, 72 Hours Post Dose
  Blood glucose: 89 ± 4 mg/dL
[1]; SAD 8.0 mg/kg, <2 hours predose, baseline
  Blood glucose: 86 ± 3 mg/dL
[1]; SAD 8.0 mg/kg, Day -1, baseline
  Blood glucose: 90 ± 5 mg/dL
[1]; SAD 8.0 mg/kg, Follow-up Visit
  Blood glucose: 94 ± 4 mg/dL
[1]; SAD 8.0 mg/kg, Screening, baseline
  Blood glucose: 89 ± 4 mg/dL
[1]; SAD 20.0 mg/kg, 24 Hours Post Dose
  Blood glucose: 91 ± 2 mg/dL
[1]; SAD 20.0 mg/kg, 48 Hours Post Dose
  Blood glucose: 86 ± 2 mg/dL
[1]; SAD 20.0 mg/kg, 72 Hours Post Dose
  Blood glucose: 88 ± 2 mg/dL
[1]; SAD 20.0 mg/kg, <2 hours predose, baseline
  Blood glucose: 97 ± 4 mg/dL
[1]; SAD 20.0 mg/kg, Day -1, baseline
  Blood glucose: 94 ± 3 mg/dL
[1]; SAD 20.0 mg/kg, Follow-up Visit
  Blood glucose: 89 ± 3 mg/dL
[1]; SAD 20.0 mg/kg, Screening, baseline
  Blood glucose: 93 ± 3 mg/dL
osteocalcin; MAD 1.0 mg/kg, Day 1 (8 h after initial dose)
  Osteocalcin: 27.4 ± 9.3 ng/mL
osteocalcin; [5]
  Osteocalcin: 33.2 ± 11.5 ng/mL
osteocalcin; MAD 1.0 mg/kg, Day 14 (8 h after last dose)
  Osteocalcin: 21.0 ± 7.8 ng/mL
osteocalcin; [6]
  Osteocalcin: 30.3 ± 9.7 ng/mL
osteocalcin; MAD 1.0 mg/kg, Day 15 recovery
  Osteocalcin: 28.8 ± 9.3 ng/mL
osteocalcin; MAD 1.0 mg/kg, Day 17 recovery
  Osteocalcin: 25.9 ± 8.0 ng/mL
osteocalcin; MAD 3.0 mg/kg, Day 1 (8 h after initial dose)
  Osteocalcin: 13.6 ± 11.5 ng/mL
osteocalcin; [7]
  Osteocalcin: 13.7 ± 11.6 ng/mL
osteocalcin; MAD 3.0 mg/kg, Day 14 (8 h after last dose)
  Osteocalcin: 13.0 ± 11.0 ng/mL
osteocalcin; [8]
  Osteocalcin: 17.1 ± 13.3 ng/mL
osteocalcin; MAD 3.0 mg/kg, Day 15 recovery
  Osteocalcin: 16.1 ± 12.5 ng/mL
osteocalcin; MAD 3.0 mg/kg, Day 17 recovery
  Osteocalcin: 13.9 ± 9.5 ng/mL
osteocalcin; MAD 9.0 mg/kg, Day 1 (8 h after initial dose)
  Osteocalcin: 20.4 ± 4.7 ng/mL
osteocalcin; [9]
  Osteocalcin: 32.9 ± 8.6 ng/mL
osteocalcin; MAD 9.0 mg/kg, Day 14 (8 h after last dose)
  Osteocalcin: 18.7 ± 4.3 ng/mL
osteocalcin; [10]
  Osteocalcin: 24.0 ± 6.4 ng/mL
osteocalcin; MAD 9.0 mg/kg, Day 15 recovery
  Osteocalcin: 26.7 ± 5.2 ng/mL
osteocalcin; MAD 9.0 mg/kg, Day 17 recovery
  Osteocalcin: 33.5 ± 7.2 ng/mL
osteocalcin; MAD 20.0 mg/kg, Day 1 (8 h after initial dose)
  Osteocalcin: 20.2 ± 4.6 ng/mL
osteocalcin; [11]
  Osteocalcin: 31.5 ± 6.7 ng/mL
osteocalcin; MAD 20.0 mg/kg, Day 14 (8 h after last dose)
  Osteocalcin: 17.0 ± 3.7 ng/mL
osteocalcin; [12]
  Osteocalcin: 32.8 ± 7.6 ng/mL
osteocalcin; MAD 20.0 mg/kg, Day 15 recovery
  Osteocalcin: 27.8 ± 5.9 ng/mL
osteocalcin; MAD 20.0 mg/kg, Day 17 recovery
  Osteocalcin: 34.6 ± 6.1 ng/mL
osteocalcin; any MAD dose group, through 20 mg/kg/day
  osteocalcin and CTX1 vs placebo: no significant changes
[2]; [5]
  Blood glucose: 86 ± 1 md/dL
[2]; MAD 1.0 mg/kg, Day 2 predose
  Blood glucose: 87 ± 2 md/dL
[2]; MAD 1.0 mg/kg, Day 3 predose
  Blood glucose: 86 ± 2 md/dL
[2]; MAD 1.0 mg/kg, Day 7 predose
  Blood glucose: 84 ± 2 md/dL
[2]; MAD 1.0 mg/kg, Day 12 predose
  Blood glucose: 83 ± 1 md/dL
[2]; [6]
  Blood glucose: 84 ± 1 md/dL
[2]; MAD 1.0 mg/kg, Day 17 (3 days after last dose)
  Blood glucose: 86 ± 1 md/dL
[2]; MAD 1.0 mg/kg, Day 21 follow-up
  Blood glucose: 90 ± 3 md/dL
[2]; MAD 1.0 mg/kg, Day -1, baseline
  Blood glucose: 90 ± 2 md/dL
[2]; MAD 1.0 mg/kg, Screening, baseline
  Blood glucose: 92 ± 1 md/dL
[2]; [7]
  Blood glucose: 87 ± 1 md/dL
[2]; MAD 3.0 mg/kg, Day 2 predose
  Blood glucose: 87 ± 1 md/dL
[2]; MAD 3.0 mg/kg, Day 3 predose
  Blood glucose: 84 ± 2 md/dL
[2]; MAD 3.0 mg/kg, Day 7 predose
  Blood glucose: 82 ± 1 md/dL
[2]; MAD 3.0 mg/kg, Day 12 predose
  Blood glucose: 83.1 ± 1.4 md/dL
[2]; [8]
  Blood glucose: 81 ± 2 md/dL
[2]; MAD 3.0 mg/kg, Day 17 (3 days after last dose)
  Blood glucose: 84 ± 1 md/dL
[2]; MAD 3.0 mg/kg, Day 21 follow-up
  Blood glucose: 91 ± 2 md/dL
[2]; MAD 3.0 mg/kg, Day -1, baseline
  Blood glucose: 90 ± 1 md/dL
[2]; MAD 3.0 mg/kg, Screening, baseline
  Blood glucose: 90.1 ± 1.5 md/dL
[2]; [9]
  Blood glucose: 89 ± 2 md/dL
[2]; MAD 9.0 mg/kg, Day 2 predose
  Blood glucose: 87 ± 1 md/dL
[2]; MAD 9.0 mg/kg, Day 3 predose
  Blood glucose: 88 ± 2 md/dL
[2]; MAD 9.0 mg/kg, Day 7 predose
  Blood glucose: 87 ± 2 md/dL
[2]; MAD 9.0 mg/kg, Day 12 predose
  Blood glucose: 84 ± 2 md/dL
[2]; [10]
  Blood glucose: 84 ± 2 md/dL
[2]; MAD 9.0 mg/kg, Day 17 (3 days after last dose)
  Blood glucose: 85 ± 2 md/dL
[2]; MAD 9.0 mg/kg, Day 21 follow-up
  Blood glucose: 88 ± 2 md/dL
[2]; MAD 9.0 mg/kg, Day -1, baseline
  Blood glucose: 89 ± 1 md/dL
[2]; MAD 9.0 mg/kg, Screening, baseline
  Blood glucose: 89 ± 3 md/dL
[2]; [11]
  Blood glucose: 87 ± 1 md/dL
[2]; MAD 20.0 mg/kg, Day 2 predose
  Blood glucose: 84 ± 1 md/dL
[2]; MAD 20.0 mg/kg, Day 3 predose
  Blood glucose: 83 ± 1 md/dL
[2]; MAD 20.0 mg/kg, Day 7 predose
  Blood glucose: 82 ± 1 md/dL
[2]; MAD 20.0 mg/kg, Day 12 predose
  Blood glucose: 80 ± 2 md/dL
[2]; [12]
  Blood glucose: 80 ± 2 md/dL
[2]; MAD 20.0 mg/kg, Day 17 (3 days after last dose)
  Blood glucose: 81 ± 2 md/dL
[2]; MAD 20.0 mg/kg, Day 21 follow-up
  Blood glucose: 91 ± 3 md/dL
[2]; MAD 20.0 mg/kg, Day -1, baseline
  Blood glucose: 89 ± 1 md/dL
[2]; MAD 20.0 mg/kg, Screening, baseline
  Blood glucose: 90 ± 3 md/dL
[2]; all dose groups SAD and MAD, any time point
  fasting insulin and glucose levels vs placebo: did not differ from placebo
[3]; Day 1 vs Day 14, once daily 14 days
  drug accumulation between daily doses: essentially no drug accumulation between doses
[3]; MAD Day 1, across 1-20 mg/kg/day
  CL/F: 23.7 to 33.7 mL/min/kg
[3]; MAD Day 14, across 1-20 mg/kg/day
  CL/F: 21 to 35.8 mL/min/kg
[4]
  solubility: very poor solubility in aqueous solutions
Adrenal suppression
  adrenal suppressive activity relative to traditional glucocorticoids: ~ 1%
